Measured values from the supplement of paper PMC11061612.

Tests used:
Experiment in all cases: Bliss excess, mean over the matrix (fraction); higher = more synergy
[1] = test system: huH-1 (Hepatocellular Carcinoma)
Summary of the method: (§1)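 Cell lines in DMEM/F12 or RPMI with 10% FBS were plated in 1536-well plates, held 24 hours at 37°C, 5% CO2, then given two-drug dose matrices for 72 hours (DMSO typically 0.2%). Viability was read by CellTiter-Glo 2.0 luminescence and scaled as inhibition from 0 (vehicle wells) to 1 (blank wells). Combination Emax is the second-highest inhibition in the matrix; Bliss excess is observed combination effect minus expected EA + EB − EA·EB, EA and EB being single-agent effects.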

[2] = test system: GCT (Other Solid Carcinomas)
Summary of the method: as §1

NB13 (Neuroblastoma) = test system: NB13 (Neuroblastoma)
Summary of the method: as §1

769-P (Kidney Carcinoma) = test system: 769-P (Kidney Carcinoma)
Summary of the method: as §1

[3] = test system: 22RV1 (Prostate Carcinoma)
Summary of the method: as §1

EB2 (Burkitt's Lymphoma) = test system: EB2 (Burkitt's Lymphoma)
Summary of the method: as §1

[4] = test system: DMS-53 (Small Cell Lung Carcinoma)
Summary of the method: as §1

[5] = test system: EPLC-272H (Other Solid Carcinomas)
Summary of the method: as §1

[6] = test system: SW620 (Colorectal Carcinoma)
Summary of the method: as §1

[7] = test system: NCI-H2228 (Lung Adenocarcinoma)
Summary of the method: as §1

[8] = test system: NCI-H1703 (Squamous Cell Lung Carcinoma)
Summary of the method: as §1

[9] = test system: OACp4C (Esophageal Adenocarcinoma)
Summary of the method: as §1

[10] = test system: NCI-H716 (Colorectal Carcinoma)
Summary of the method: as §1

[11] = test system: NCI-H441 (Lung Adenocarcinoma)
Summary of the method: as §1

[12] = test system: HT55 (Colorectal Carcinoma)
Summary of the method: as §1

PEO1 (Ovarian Carcinoma) = test system: PEO1 (Ovarian Carcinoma)
Summary of the method: as §1

[13] = test system: CESS (Acute Myeloid Leukemia)
Summary of the method: as §1

[14] = test system: MDA-MB-436 (Breast Carcinoma)
Summary of the method: as §1

EW-16 (Ewing's Sarcoma) = test system: EW-16 (Ewing's Sarcoma)
Summary of the method: as §1

[15] = test system: JIMT-1 (Breast Carcinoma)
Summary of the method: as §1

Structure (SMILES)	Bliss excess [1]	Bliss excess [2]	Bliss excess (NB13 (Neuroblastoma))	Bliss excess (769-P (Kidney Carcinoma))	Bliss excess [3]	Bliss excess (EB2 (Burkitt's Lymphoma))	Bliss excess [4]	Bliss excess [5]	Bliss excess [6]	Bliss excess [7]	Bliss excess [8]	Bliss excess [9]	Bliss excess [10]	Bliss excess [11]	Bliss excess [12]	Bliss excess (PEO1 (Ovarian Carcinoma))	Bliss excess [13]	Bliss excess [14]	Bliss excess (EW-16 (Ewing's Sarcoma))	Bliss excess [15]
COc1nnc2ccc(N3CCC(c4ccc(OCCN5CCN(C)C(=O)[C@H]5C)cc4)CC3)nn12 [AZD5153] + CCN(CCO)CCCOc1ccc2c(Nc3cc(CC(=O)Nc4cccc(F)c4)[nH]n3)ncnc2c1 [AZD2811] (first compound max 1 µM, 7x7, partner max 1 µM)	0.0201	-0.0201	-0.0336	-0.0217	-0.0252	-0.102	0.0175	-0.0387	-0.0002	-0.0285	-0.038	-0.062	-0.0316	-0.0236	-0.0479	-0.0137	0.0259	-0.0214	0.0068	-0.0113
COc1nnc2ccc(N3CCC(c4ccc(OCCN5CCN(C)C(=O)[C@H]5C)cc4)CC3)nn12 [AZD5153] + C=CCn1c(=O)c2cnc(Nc3ccc(N4CCN(C)CC4)cc3)nc2n1-c1cccc(C(C)(C)O)n1 [AZD1775] (first compound max 1 µM, partner max 1 µM)	0.024	0.0168	-0.0645	-0.0321	0.0047	-0.135	0.0269	-0.0939	-0.0753	-0.0784	0.0052	-0.0295	-0.0734	-0.0322	-0.0112	0.058	-0.0643	-0.0783	-0.037	-0.0054
CC1(C)CCC(CN2CCN(c3ccc(C(=O)NS(=O)(=O)c4ccc(NCC5CCOCC5)c([N+](=O)[O-])c4)c(Oc4cnc5[nH]ccc5c4)c3)CC2)=C(c2ccc(Cl)cc2)C1 [Venetoclax] + CCN(CCO)CCCOc1ccc2c(Nc3cc(CC(=O)Nc4cccc(F)c4)[nH]n3)ncnc2c1 [AZD2811] (first compound max 1 µM, 7x7, partner max 1 µM)	-0.0337	-0.004	0.0534	-0.0637	-0.001	-0.0357	0.069	0.0409	-0.0243	-0.039	0.0412	-0.0234	-0.0813	-0.044	0.0034	-0.0314	0.0083	-0.023	0.0619	-0.0232
COc1cccc(OCCCN)c1-c1cc(Nc2cnc(C#N)cn2)n[nH]1 [Prexasertib] + C[C@@H]1COCCN1C2=NC(=NC(=C2)C3(CC3)[S@](=N)(=O)C)C4=C5C=CNC5=NC=C4 [AZD6738] (first compound max 1 µM, 7x7, partner max 10 µM)	-0.0716	-0.0001	-0.0603	0.0022	0.0209	-0.0478	0.032	-0.0656	0.013	-0.0434	0.0047	-0.0882	-0.0432	0.0009	0.0367	-0.0083	-0.0065	0.0051	0.0053	0.0026
COc1cccc2c1C(=O)c1c(O)c3c(c(O)c1C2=O)C[C@@](O)(C(=O)CO)C[C@@H]3O[C@H]1C[C@H](N)[C@H](O)[C@H](C)O1 [Doxorubicin] + Cc1cc2ncnn2cc1Nc1ncc2c(n1)n(C1CCOCC1)c(=O)n2C [AZD7648] (first compound max 1 µM, 7x7, partner max 10 µM)	0.102	0.0589	0.0808	0.0903	-0.0351	0.0972	0.0197	0.0568	0.0335	0.0042	0.0451	0.0636	0.0113	0.0125	0.0622	-0.0214	0.11	0.0122	0.0933	0.0514
CC1(C)CCC(CN2CCN(c3ccc(C(=O)NS(=O)(=O)c4ccc(NCC5CCOCC5)c([N+](=O)[O-])c4)c(Oc4cnc5[nH]ccc5c4)c3)CC2)=C(c2ccc(Cl)cc2)C1 [Venetoclax] + Cc1cc2ncnn2cc1Nc1ncc2c(n1)n(C1CCOCC1)c(=O)n2C [AZD7648] (first compound max 1 µM, 7x7, partner max 10 µM)	-0.0511	-0.046	0.0559	-0.0087	-0.0313	-0.0338	0.11	-0.0656	-0.0452	-0.0072	0.0396	-0.0027	-0.0146	-0.0437	-0.0069	-0.033	-0.0288	-0.04	-0.0534	-0.0248
CCc1c2c(nc3ccc(O)cc13)-c1cc3c(c(=O)n1C2)COC(=O)[C@]3(O)CC [SN-38] + O=C(c1cc(Cc2n[nH]c(=O)c3ccccc23)ccc1F)N1CCN(C(=O)C2CC2)CC1 [Olaparib] (first compound max 0.3 µM, 7x7, partner max 10 µM)	0.0467	0.103	-0.017	0.0592	0.0497	0.0348	0.0457	0.071	0.0524	–	0.0271	0.0413	–	0.0449	0.0966	0.0523	0.0785	0.0627	0.076	0.035
